Source: patent US20090093618A1, “STREPTAVIDIN-BIOTIN-LINK ANTIBODY-HAPTEN SYSTEM” (The Regents OF THE UNIVERSITY OF CALIFORNA, priority 2006, published 2009)

Key:
2D12.5 = assay: Relative binding curves of 2D12.5 for Y-DOTA isomers, Y-DTPA and sidechain variants (FIG. 16, 17); design: species or system mouse; settings: for relative binding affinity for 2D12.5 (in words): coordinated metal Y^3+
Text: FIG. 16 is a graphical display showing the relative binding curves of 2D12.5 for Y-DOTA isomers and Y-DTPA. 2D12.5 binds both the (R)- and (S)-isomer of 2-(4-nitrobenzyl)-DOTA when the coordinated metal is Y^3+ (the same behavior is expected for the other rare earths). The (S)-isomer confers Λ-helicity, while the (R)-isomer confers Δ-helicity to the acetate arms. […] Y-DOTA (no-sidearm) exists in solution as a racemic mixture of the coordination isomers.
FIG. 17 is a graphical display showing relative binding curves of Y-DOTA molecules with different sidechain locations. […] Evaluation of the crystal structure seems to indicate that shorter substitutions at the position may bind with higher affinity. Substitutions at other locations may yield reasonably high affinities as well. The (5-Amino-2-methoxy-phenyl)-carboxymethyl)-DOTA analyzed in this experiment was racemic, so it is not clear which isomer binds with higher affinity. The low pKa of the carboxymethyl proton makes it difficult to prepare a chirally pure molecule.

antibody 2D12.5 = assay: Competitive immunoassay (ELISA) of metal-DOTA complexes relative to Y-DOTA; format: binding, mouse; settings: 37° C.; for relative binding affinity compared with Y-DOTA (in words): 15 ions tested
Text: FIG. 13 is graphical display showing the relative binding of metal-DOTA complexes to antibody 2D12.5. A representative set of competitive binding curves obtained from ELISA experiments described in Example 3 below. Error bars (representing the standard error of the mean) are shown, but are generally smaller than the data points.
To determine the metal selectivity of the antibody 2D12.5, a competitive immunoassay was used to measure the binding constants of multiple metal-DOTA complexes relative to Y^3+-DOTA.
We examined the monoclonal antibody 2D12.5, initially developed to bind specifically to Y-DOTA for targeted radiotherapy (see, e.g., Goodwin et al., Cancer Res. 54: 5937-5946 (1994)), in order to determine the scope of its activity. To assess the metal selectivity of antibody 2D12.5, a competitive immunoassay to measure the binding constants of various metal-DOTA complexes relative to the original Y^3+ complex was developed (FIG. 12). Briefly, 2D12.5 was incubated at 37° C. in the presence of immobilized Y-DOTA and a soluble metal-DOTA competitor. The metal-DOTA concentration was varied from μM to pM in order to determine the relative binding affinity of 2D12.5 for each metal chelate in comparison to Y-DOTA. Binding was measured by standard methods known to those of skill in the art. The DOTA analog used to evaluate binding was [S]-2-(p-nitrobenzyl)-DOTA, which is similar to the original antigen.

N85D_G54C 2D12.5 mutant = assay: Permanent binding of metal-AABD and metal-NBD complexes to 2D12.5 Fab mutant N85D_G54C (Western blot)
Experimental: Metallation of Chelates with stable metal cations. Metals tested in this experiment included Y, La, Lu, Sr and Sc. Stock chelate concentrations were measured using a Co-57 metal binding assay (Meares et al., Anal. Biochem. 142:68-78, 1984). Stock metal solutions (approximately 0.2 M) were prepared by dissolving the appropriate gravimetrically measured rare earth chloride salt in 0.05 M HCl. As an example, YCl3 (2.5 equivalents) was added to 25 μL of NBD ([…]) dissolved in 0.1 M tetramethylammonium acetate, and the pH was adjusted to 5 by the addition of triethylamine. The metallation was allowed to proceed overnight at 50° C. Samples were promptly frozen at −70° C., and metallation efficiency was assessed using a competitive metal-binding assay with Co-57.^3 Excess metal was scavenged with DTPA, which has very low affinity for the antibody (<<1%).
Metal-AABD and metal-NBD complexes were incubated with 2D12.5 Fab mutant N85D_G54C and samples denatured, reduced and separated by SDS-PAGE, as described for Y-90 in the previous examples. […]

Molecule	relative binding affinity for 2D12.5 (in words) (2D12.5)	relative binding affinity compared with Y-DOTA (in words) (antibody 2D12.5)	further results
O=C(O)CN1CCN(CC(=O)O)CCN(CC(=O)O)[C@H](Cc2ccc([N+](=O)[O-])cc2)CN(CC(=O)O)CC1 [(R)-isomer of 2-(4-nitrobenzyl)-DOTA, 2-(4-nitrobenzyl)-DOTA]	decreases less than an order of magnitude		
O=C(O)CN(CCN(CC(=O)O)CC(=O)O)CCN(CC(=O)O)CC(=O)O [DTPA]			affinity for the antibody (2D12.5; DTPA used to scavenge excess metal): < 1%
O=C([O-])CN1CCN(CC(=O)[O-])CCN(CC(=O)[O-])CCN(CC(=O)[O-])CC1.[Eu+3] [Eu^3+]		strongest binders	
O=C([O-])CN1CCN(CC(=O)[O-])CCN(CC(=O)[O-])CCN(CC(=O)[O-])CC1.[Gd+3] [Gd-DOTA]		bind more tightly than the original Y^3+ complex	relative binding affinity compared with Y-DOTA (in words) (antibody 2D12.5; listed as Gd^3+): strongest binders
O=C(O)CN1CCN(CC(=O)O)CCN(CC(=O)O)C(Cc2ccc([N+](=O)[O-])cc2)CN(CC(=O)O)CC1 (stereo not shown) [NBD, [S]-2-(p-nitrobenzyl)-DOTA]			permanent bond formation with N85D_G54C 2D12.5 mutant (N85D_G54C 2D12.5 mutant; Western blot, hybridoma-derived 2D12.5 as 1° stain): negative
O=C([O-])CN1CCN(CC(=O)[O-])CCN(CC(=O)[O-])CCN(CC(=O)[O-])CC1.[Tb+3] [Tb-DOTA]		strongest binders	
O=C([O-])CN1CCN(CC(=O)[O-])CCN(CC(=O)[O-])CCN(CC(=O)[O-])CC1.[Y+3] [Y-DOTA]	between that observed for the (S)- and (R)-isomers		Kd (antibody 2D12.5; DOTA analog used was [S]-2-(p-nitrobenzyl)-DOTA): 10 nM
O=C(O)CN1CCN(CC(=O)O)CCN(CC(=O)O)[C@@H](Cc2ccc([N+](=O)[O-])cc2)CN(CC(=O)O)CC1 [Y-NBD, (S)-2-(4-nitrobenzyl)-DOTA]	clearly stronger		relative binding affinity for 2D12.5 (in words) (2D12.5; listed as (S)-isomer of 2-(4-nitrobenzyl)-DOTA): preferred isomer for binding; binding strength of NBD complexes among the rare earths (N85D_G54C 2D12.5 mutant; Western blots): one of the strongest binders
(5-Amino-2-methoxyphenyl)-carboxymethyl)-DOTA	still sufficiently strong		
